In patent publication US4159338A, “Antiinflammatory-4,5-dicyclic-2-(substituted thio)-imidazoles and their corresponding sulfoxides and sulfones” (E. I. Du Pont de Nemours and Company, priority 1978, dated 1979):
Like-named read-outs stand apart in the source and are kept apart here.

Experiments:
[1] = system: adjuvant-induced arthritis in rats; test: Established Adjuvant-Induced Arthritis in Rats; format: in vivo, Charles River Lewis male rats; settings: for ED50: Rattus norvegicus, read-out: A. A. ED50%
[2] = system: phenylquinone-induced writhing in mice; test: Phenylquinone Writhing Test; format: in vivo, female white mice; settings: Mus musculus, 0.5 h, oral, at 1/2 hour
Experimental: A standard procedure for detecting and comparing the analgesic activity of compounds in this series for which there is good correlation with human efficacy is the standard phenylquinone writhing test modified from Siegmund, et al., Proc. Soc. Exp. Biol. Med. 95, 729 (1957). A test compound suspended in 1% methylcellulose was given orally to fasted (17-21 hours) female white mice, 5-20 animals per double blind test. Aqueous (0.01% phenyl-p-benzoquinone) phenylquinone was injected intraperitoneally at 24 minutes later using 0.20 ml per mouse. […] The effective analgesic dose for 50% of the mice (ED50) was calculated by the moving average method of Thompson, W. R., Bact. Rev. 11, 115-145 (1947); also time of peak action was determined for many of the compounds.

[3] = oral, 7 daily doses, established adjuvant arthritis rats, determined as % paw volume reduction from control
[4] = oral, 7 daily doses, established adjuvant arthritis rats

| Structure (SMILES) | ED50 [1, 3] | ED50 [2] | further results |
| --- | --- | --- | --- |
| FC(F)C(F)(F)Sc1nc(-c2ccccc2)c(-c2cccnc2)[nH]1 [Example 11, 4-Phenyl-5-(3-pyridyl)-2-(1,1,2,2-tetrafluoroethylthio)-1H-imidazole] | < 25 mg/kg |  |  |
| COc1ccc(-c2nc(SC(F)(F)C(F)F)[nH]c2-c2cccs2)cc1 [Example 8, 4-(4-Methoxyphenyl)-2-(1,1,2,2-tetrafluoroethylthio)-5-(2-thienyl)-1H-imidazole] | 30 mg/kg | 45 mg/kg |  |
| O=S(=O)(c1nc(-c2ccc(F)cc2)c(-c2cccs2)[nH]1)C(F)(F)C(F)F [Example 3, 4-(4-Fluorophenyl)-2-(1,1,2,2-tetrafluoroethylsulfonyl)-5-(2-thienyl)-1H-imidazole] | 0.1 mg/kg | 2.1 mg/kg |  |
| Fc1ccc(-c2nc(SC(F)(F)C(F)F)[nH]c2-c2cccs2)cc1 [Example 2, 4-(4-Fluorophenyl)-2-(1,1,2,2-tetrafluoroethylthio)-5-(2-thienyl)-1H-imidazole] | 1.3 mg/kg |  |  |
| CC(C)Cc1ccc(C(C)C(=O)O)cc1 (stereo not shown) [Ibuprofen, reference compound] | 100 mg/kg |  |  |
| COc1ccc2c(c1)c(CC(=O)O)c(C)n2C(=O)c1ccc(Cl)cc1 [Indomethacin, reference compound] |  |  | ED50 ([1]; po): 0.3 mg/kg |
| FC(F)C(F)(F)Sc1nc(-c2cccs2)c(-c2cccs2)[nH]1 [Example 1, 2-[(1,1,2,2-Tetrafluoroethyl)thio]-4,5-bis-(2-thienyl)-1H-imidazole] |  | 4.6 mg/kg | % paw volume reduction from control at 50 mg/kg [1, 4]: 32% |
| O=S(=O)(c1nc(-c2cccs2)c(-c2cccs2)[nH]1)C(F)(F)C(F)F [Example 5, 2-(1,1,2,2-Tetrafluoroethylsulfonyl)-4,5-bis-(2-thienyl)-1H-imidazole] | 2.2 mg/kg | < 130 mg/kg |  |
| FC(F)C(F)(F)Sc1nc(-c2ccc(Cl)c(Cl)c2)c(-c2cccs2)[nH]1 [Example 6, 4-(3,4-Dichlorophenyl)-2-(1,1,2,2-tetrafluoroethylthio)-5-(2-thienyl)-1H-imidazole] | 50 mg/kg |  |  |
| CC(=O)Oc1ccccc1C(=O)O [Aspirin, reference compound] |  |  | ED50 ([1]; po): 305 mg/kg |
| COc1ccc(-c2nc(S(=O)(=O)C(F)(F)C(F)F)[nH]c2-c2cccs2)cc1 [Example 9, 4-(4-Methoxyphenyl)-2-(1,1,2,2-tetrafluoroethylsulfonyl)-5-(2-thienyl)-1H-imidazole] | 5 mg/kg | 1.67 mg/kg |  |
| CCCCC1C(=O)N(c2ccccc2)N(c2ccccc2)C1=O [Phenylbutazone, reference compound] | 10 mg/kg |  |  |
| FC(F)C(F)(F)Sc1nc(-c2ccco2)c(-c2ccco2)[nH]1 [Example 10, 4,5-bis-(2-Furyl)-2-(1,1,2,2-tetrafluoroethylthio)-1H-imidazole] |  |  | % paw volume reduction from control at 50 mg/kg [1, 4]: 34% |
| FC(F)C(F)(F)Sc1nc(-c2ccc(Cl)cc2)c(-c2cccs2)[nH]1 [Example 4, 4-(4-Chlorophenyl)-2-(1,1,2,2-tetrafluoroethylthio)-5-(2-thienyl)-1H-imidazole] | 12 mg/kg |  |  |
